Test results: PubChem BioAssay AID248 (DTP/NCI, 2004)
Several values for one entry are separate records, joined by “and”; a condition that tells them apart may be missing. Equal values may be shown once. Inconclusive results and toxic doses are left out.

System: L1210 leukemia ip in BDF1 mice, survival T/C
Experiment: NCI In Vivo Anticancer Drug Screen. Data for tumor model L1210 Leukemia (intraperitoneal) in B6D2F1 (BDF1) mice
Conditions: endpoint: mean survival time, higher = longer survival
Method in brief: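 Transplanted-tumor mice were given test agent; controls received vehicle only. Survival readings from the two groups were divided (treated over control).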

[1] = dose: 100.0 mg/kg/injection, schedule: Q01DX009 (ip), vehicle: saline
[2] = dose: 100.0 mg/kg/injection, schedule: Q04DX003 (ip), vehicle: saline
[3] = dose: 200.0 mg/kg/injection, schedule: Q01DX009 (ip), vehicle: saline
[4] = dose: 400.0 mg/kg/injection, schedule: Q01DX009 (ip), vehicle: saline
[5] = dose: 100.0 mg/kg/injection, schedule: Q01DX001 (ip), vehicle: saline
[6] = dose: 200.0 mg/kg/injection, schedule: Q01DX001 (ip), vehicle: saline
[7] = dose: 400.0 mg/kg/injection, schedule: Q01DX001 (ip), vehicle: saline
[8] = dose: 200.0 mg/kg/injection, schedule: Q01DX009 (ip), vehicle: saline with Tween-80
[9] = dose: 400.0 mg/kg/injection, schedule: Q01DX009 (ip), vehicle: saline with Tween-80
[10] = dose: 50.0 mg/kg/injection, schedule: Q01DX009 (ip), vehicle: Klucel (hydroxypropylcellulose) (HPC)
[11] = dose: 100.0 mg/kg/injection, schedule: Q01DX009 (ip), vehicle: Klucel (hydroxypropylcellulose) (HPC)
[12] = dose: 200.0 mg/kg/injection, schedule: Q04DX003 (ip), vehicle: saline
[13] = dose: 400.0 mg/kg/injection, schedule: Q04DX003 (ip), vehicle: saline

NC1(CO)COC(c2ccccc2)OC1 (configuration not stated)
T/C (dose: 12.5 mg/kg/injection, schedule: Q01DX009 (ip), vehicle: saline): 102 % of control
T/C (dose: 12.5 mg/kg/injection, schedule: Q04DX003 (ip), vehicle: saline): 102 % of control
T/C (dose: 25.0 mg/kg/injection, schedule: Q01DX009 (ip), vehicle: saline): 94 % of control
T/C (dose: 25.0 mg/kg/injection, schedule: Q04DX003 (ip), vehicle: saline): 96 % of control
T/C (dose: 50.0 mg/kg/injection, schedule: Q01DX009 (ip), vehicle: saline): 96 % of control and 104 % of control
T/C (dose: 50.0 mg/kg/injection, schedule: Q04DX003 (ip), vehicle: saline): 105 % of control
T/C (dose: 100.0 mg/kg/injection, schedule: Q01DX009 (ip), vehicle: saline sonified): 96 % of control
T/C [1]: 112 % of control
T/C [2]: 107 % of control and 110 % of control

COc1ccc(Cl)cc1NC(=S)Nc1ccccc1
T/C (dose: 100.0 mg/kg/injection, schedule: Q04DX002 (ip), vehicle: Klucel (hydroxypropylcellulose) (HPC)): 90 % of control
T/C (dose: 200.0 mg/kg/injection, schedule: Q04DX002 (ip), vehicle: Klucel (hydroxypropylcellulose) (HPC)): 101 % of control
T/C (dose: 400.0 mg/kg/injection, schedule: Q04DX002 (ip), vehicle: Klucel (hydroxypropylcellulose) (HPC)): 101 % of control

Cc1ccc(Cc2cc(=O)[nH]c(=S)[nH]2)cc1
T/C (dose: 100.0 mg/kg/injection, schedule: Q04DX003 (ip), vehicle: Klucel (hydroxypropylcellulose) (HPC)): 98 % of control
T/C (dose: 200.0 mg/kg/injection, schedule: Q04DX003 (ip), vehicle: Klucel (hydroxypropylcellulose) (HPC)): 93 % of control
T/C (dose: 400.0 mg/kg/injection, schedule: Q04DX003 (ip), vehicle: Klucel (hydroxypropylcellulose) (HPC)): 92 % of control

CC(=O)NC1CCCCCCC1
T/C (dose: 100.0 mg/kg/injection, schedule: Q01DX005 (ip), vehicle: saline): 103 % of control
T/C [1]: 108 % of control
T/C (dose: 100.0 mg/kg/injection, schedule: Q04DX002 (ip), vehicle: saline): 100 % of control
T/C (dose: 200.0 mg/kg/injection, schedule: Q01DX005 (ip), vehicle: saline): 109 % of control
T/C [3]: 102 % of control
T/C (dose: 200.0 mg/kg/injection, schedule: Q04DX002 (ip), vehicle: saline): 110 % of control
T/C (dose: 400.0 mg/kg/injection, schedule: Q01DX005 (ip), vehicle: saline): 109 % of control
T/C [4]: 115 % of control
T/C (dose: 400.0 mg/kg/injection, schedule: Q04DX002 (ip), vehicle: saline): 100 % of control

CC(NCCN1CC1)C1CC1 (configuration not stated)
T/C (dose: 20.0 mg/kg/injection, schedule: Q01DX009 (ip), vehicle: saline): 120 % of control

Cc1ccc(S(=N)(=O)C2CC2)cc1 (configuration not stated)
T/C [5]: 95 % of control
T/C [6]: 93 % of control
T/C [7]: 103 % of control

Cc1c2oc3c(C)ccc(C(=O)NC4C(=O)NC(C(C)C)C(=O)N5CCCC5C(=O)N(C)CC(=O)N(C)C(C(C)C)C(=O)OC4C)c3nc-2c(C(=O)NC2C(=O)NC(C(C)C)C(=O)N3CCCC3C(=O)N(C)CC(=O)N(C)C(C(C)C)C(=O)OC2C)c(NCCCO)c1=O (configuration not stated)
T/C (dose: 0.07 mg/kg/injection, schedule: Q04DX003 (ip), vehicle: saline + alcohol): 95 % of control
T/C (dose: 0.1 mg/kg/injection, schedule: Q01DX009 (ip), vehicle: saline + alcohol): 116 % of control
T/C (dose: 0.15 mg/kg/injection, schedule: Q04DX003 (ip), vehicle: saline + alcohol): 107 % of control
T/C (dose: 0.2 mg/kg/injection, schedule: Q01DX001 (ip), vehicle: saline + alcohol): 106 % of control
T/C (dose: 0.3 mg/kg/injection, schedule: Q04DX003 (ip), vehicle: saline + alcohol): 108 % of control
T/C (dose: 0.4 mg/kg/injection, schedule: Q01DX001 (ip), vehicle: saline + alcohol): 107 % of control
T/C (dose: 0.6 mg/kg/injection, schedule: Q04DX003 (ip), vehicle: saline + alcohol): 114 % of control
T/C (dose: 0.62 mg/kg/injection, schedule: Q04DX003 (ip), vehicle: saline + alcohol): 111 % of control
T/C (dose: 0.8 mg/kg/injection, schedule: Q01DX001 (ip), vehicle: saline + alcohol): 103 % of control
T/C (dose: 1.0 mg/kg/injection, schedule: Q01DX001 (ip), vehicle: saline + alcohol): 112 % of control
T/C (dose: 1.25 mg/kg/injection, schedule: Q04DX003 (ip), vehicle: saline + alcohol): 121 % of control
T/C (dose: 1.6 mg/kg/injection, schedule: Q01DX001 (ip), vehicle: saline + alcohol): 95 % of control
T/C (dose: 2.0 mg/kg/injection, schedule: Q01DX001 (ip), vehicle: saline + alcohol): 121 % of control
T/C (dose: 3.2 mg/kg/injection, schedule: Q01DX001 (ip), vehicle: saline + alcohol): 104 % of control
T/C (dose: 4.0 mg/kg/injection, schedule: Q01DX001 (ip), vehicle: saline + alcohol): 121 % of control
T/C (dose: 5.0 mg/kg/injection, schedule: Q04DX003 (ip), vehicle: saline + alcohol): 160 % of control
T/C (dose: 12.5 micrograms/kg/injection, schedule: Q01DX009 (ip), vehicle: saline + alcohol): 101 % of control and 116 % of control
T/C (dose: 25.0 micrograms/kg/injection, schedule: Q01DX009 (ip), vehicle: saline + alcohol): 98 % of control
T/C (dose: 50.0 micrograms/kg/injection, schedule: Q01DX009 (ip), vehicle: saline + alcohol): 106 % of control

CC1(C)C=C2OC(=O)CCC2(C)CC1 (configuration not stated)
T/C (dose: 100.0 mg/kg/injection, schedule: Q01DX001 (ip), vehicle: Klucel (hydroxypropylcellulose) (HPC)): 106 % of control
T/C (dose: 100.0 mg/kg/injection, schedule: Q01DX009 (ip), vehicle: saline with Tween-80): 109 % of control
T/C (dose: 200.0 mg/kg/injection, schedule: Q01DX001 (ip), vehicle: Klucel (hydroxypropylcellulose) (HPC)): 106 % of control
T/C [8]: 112 % of control
T/C (dose: 400.0 mg/kg/injection, schedule: Q01DX001 (ip), vehicle: Klucel (hydroxypropylcellulose) (HPC)): 96 % of control
T/C [9]: 107 % of control

Cc1ccc(C2NC(=O)c3ccccc3N2)s1 (configuration not stated)
T/C [10]: 107 % of control and 92 % of control
T/C [11]: 98 % of control and 105 % of control
T/C (dose: 150.0 mg/kg/injection, schedule: Q01DX009 (ip), vehicle: Klucel (hydroxypropylcellulose) (HPC)): 102 % of control
T/C (dose: 200.0 mg/kg/injection, schedule: Q01DX009 (ip), vehicle: Klucel (hydroxypropylcellulose) (HPC)): 108 % of control
T/C (dose: 400.0 mg/kg/injection, schedule: Q01DX009 (ip), vehicle: Klucel (hydroxypropylcellulose) (HPC)): 87 % of control

C=CCOCCC(=O)OCC=C
T/C [10]: 95 % of control
T/C [11]: 92 % of control
T/C [2]: 103 % of control
T/C [12]: 103 % of control

COC(OC)c1cc(=O)n(C)c(=O)[nH]1
T/C (dose: 100.0 mg/kg/injection, schedule: Q04DX003 (ip), vehicle: saline with Tween-80): 104 % of control
T/C [8]: 93 % of control
T/C (dose: 200.0 mg/kg/injection, schedule: Q04DX003 (ip), vehicle: saline with Tween-80): 104 % of control
T/C [9]: 89 % of control
T/C (dose: 400.0 mg/kg/injection, schedule: Q04DX003 (ip), vehicle: saline with Tween-80): 100 % of control

CCCC1CC=CCC12C(=O)NC(=O)NC2=O (configuration not stated)
T/C [5]: 103 % of control
T/C [6]: 97 % of control
T/C [7]: 97 % of control

CCCCCCC[CH2][Sn]1([CH2]CCCCCCC)[O]OC(c2ccccc2)[O]1 (configuration not stated)
T/C (dose: 6.25 mg/kg/injection, schedule: Q04DX002 (ip), vehicle: saline with Tween-80): 102 % of control
T/C (dose: 12.5 mg/kg/injection, schedule: Q04DX002 (ip), vehicle: saline with Tween-80): 98 % of control
T/C (dose: 25.0 mg/kg/injection, schedule: Q04DX002 (ip), vehicle: saline with Tween-80): 91 % of control

Cc1c[nH]c(=O)c[n+]1[O-]
T/C [2]: 97 % of control
T/C [12]: 100 % of control
T/C [13]: 100 % of control

O=C(COc1ccc(Cl)c(Cl)c1)Nc1ccc[n+](Cc2ccc([N+](=O)[O-])cc2)c1
T/C [2]: 95 % of control
T/C [12]: 95 % of control
T/C [13]: 104 % of control

COC(=O)N1C=C2C(C)=CC1C(C#N)(C#N)C2(C#N)C#N (configuration not stated)
T/C (dose: 10.0 mg/kg/injection, schedule: Q01DX001 (ip), vehicle: saline): 105 % of control and 87 % of control
T/C (dose: 40.0 mg/kg/injection, schedule: Q01DX001 (ip), vehicle: saline): 98 % of control

CSCCC(NC(C)=O)C(=O)O (configuration not stated)
T/C [1]: 99 % of control
T/C [2]: 94 % of control
T/C [3]: 86 % of control
T/C [12]: 91 % of control
T/C [4]: 96 % of control
T/C [13]: 91 % of control
